Read-outs that look alike come from different tables or passages of the source.
Experiments:
[1] = biological target: T1, HIV integrase (Human immunodeficiency virus type 1 group M subtype B, UniProt P04585); assay: biochemical; conditions: read-out: Inhibition of strand transfer (IC50)
[2] = biological target: T1, HIV integrase; assay: biochemical; conditions: read-out: Inhibition of 3' processing activity (IC50)
[3] = biological target: HIV reverse transcriptase (Human immunodeficiency virus type 1 group M subtype B, UniProt P03366); assay: Reverse transcriptase scintillation proximity assay (Example 4, Table 2); format: biochemical; conditions: 10 μM inhibitor, relative to dimethyl sulfoxide = 100%; for remaining activity at 10 µM: 0.05 h, read-out: % RT activity remaining at 10 μM; for % RT activity remaining at 10 μM: 3 min
Description: Reverse transcriptase ("RT") activity is measured using a scintillation proximity assay kit available from Amersham Life Sciences, Inc., which uses a biotin/streptavidin bead capture system. RNA-dependent polymerase activity is measured using purified […] and a synthetic 17mer/50mer RNA-DNA template-primer containing biotin at the 5' end of the DNA. The template-primer, buffer, dNTP, and inhibitor are incubated for 10 minutes at 37° C. before the RT is added. The final 100 μl reaction mixture contains: 39 nm of template primer, buffer (40 mM tris HCl at pH 8.0, 10 mM MgCl2, 60 mM KCl, 10 mM dithiothreitol); 75 nM of each dNTP except dTTP; 25 nM dTTP and 35 nM tritium labeled d*TTP; 10 μM inhibitor; and 1.0-2.0 μg of RT. After three minute incubation, the reaction is quenched with 40 μl of 0.56M EDTA. Then 10 μl of streptavidin SPA beads (in suspension) are added and incubated at 37° C. for 10 minutes. Finally, 850 μl of a buffer containing 10 mM Tris HCl pH 7.4 and 0.15M NaCl is added. The signal is produced by biotinylated polymers incorporating d*TTP binding to the streptavidin beads which stimulate the scintillant. The amount of d*TTP incorporated in the polymer is measured with a scintillation counter.
Compounds showing good inhibition will give a low number of counts/min (cpm). This number is related to a standard, dimethyl sulfoxide, which is given an arbitrary 100% relative activity. All cpm data in a single run are given a percent of this standard.

Row | SMILES | IC50 [1] | IC50 [2] | remaining activity at 10 µM [3] | also measured
1 | O=C(Nc1ccc2c(O)c(N=Nc3ccccc3)c(S(=O)(=O)O)cc2c1)C(=O)Nc1ccc2c(O)c(N=Nc3ccccc3)c(S(=O)(=O)O)cc2c1 [Compound 106] | 400 nM | 1500 nM | – | –
2 | O=C(O)CCc1ccc(N=Nc2c(S(=O)(=O)O)cc3cc(NC(=O)C(=O)Nc4ccc5c(O)c(N=Nc6ccc(CCC(=O)O)cc6)c(S(=O)(=O)O)cc5c4)ccc3c2O)cc1 [Compound 94] | 400 nM | 1000 nM | – | –
3 | O=C(Nc1ccc2c(O)c(N=Nc3ccc(Cl)cc3)c(S(=O)(=O)O)cc2c1)Nc1ccc2c(O)c(N=Nc3ccc(Cl)cc3)c(S(=O)(=O)O)cc2c1 [Compound 70] | > 3000 nM | > 3000 nM | – | –
4 | O=C(O)CCc1ccc(N=Nc2c(S(=O)(=O)O)cc3cc(NC(=O)Nc4ccc5c(O)c(N=Nc6ccc(CCC(=O)O)cc6)c(S(=O)(=O)O)cc5c4)ccc3c2O)cc1 [Compound 68] | 400 nM | 400 nM | – | –
5 | O=C(O)CCCc1ccc(N=Nc2c(S(=O)(=O)O)cc3cc(NC(=O)C(=O)Nc4ccc5c(O)c(N=Nc6ccc(CCCC(=O)O)cc6)c(S(=O)(=O)O)cc5c4)ccc3c2O)cc1 [Compound 95] | 700 nM | 400 nM | – | –
6 | COc1cc(C(=O)O)c(N=Nc2c(S(=O)(=O)O)cc3cc(NC(=O)C(=O)Nc4ccc5c(O)c(N=Nc6c(C(=O)O)cc(OC)c(OC)c6OC)c(S(=O)(=O)O)cc5c4)ccc3c2O)c(OC)c1OC [Compound 102] | 700 nM | 600 nM | – | –
7 | O=C(Nc1ccc2c(O)c(N=Nc3ccccc3)c(S(=O)(=O)O)cc2c1)Nc1ccc2c(O)c(N=Nc3ccccc3)c(S(=O)(=O)O)cc2c1 [Compound 62] | 500 nM | 400 nM | – | –
8 | O=C(Nc1ccc2c(O)c(N=Nc3cccc(C(=O)O)c3)c(S(=O)(=O)O)cc2c1)C(=O)Nc1ccc2c(O)c(N=Nc3cccc(C(=O)O)c3)c(S(=O)(=O)O)cc2c1 [Compound 96] | 400 nM | 500 nM | – | –
9 | O=C(Nc1ccc2c(O)c(N=Nc3ccc(F)cc3)c(S(=O)(=O)O)cc2c1)Nc1ccc2c(O)c(N=Nc3ccc(F)cc3)c(S(=O)(=O)O)cc2c1 [Compound 69] | 900 nM | 700 nM | – | –
10 | COc1cc(N=Nc2c(S(=O)(=O)O)cc3cc(NC(=O)C(=O)Nc4ccc5c(O)c(N=Nc6cc(OC)c(OC)c(OC)c6)c(S(=O)(=O)O)cc5c4)ccc3c2O)cc(OC)c1OC [Compound 110] | 400 nM | 1100 nM | – | –
11 | CCOC(=O)c1c[nH]nc1N=Nc1c(S(=O)(=O)O)cc2cc(NC(=O)Nc3ccc4c(O)c(N=Nc5n[nH]cc5C(=O)OCC)c(S(=O)(=O)O)cc4c3)ccc2c1O [Compound 64] | > 3000 nM | > 3000 nM | – | –
12 | COc1ccc(N=Nc2c(S(=O)(=O)O)cc3cc(NC(=O)Nc4ccc5c(O)c(N=Nc6ccc(OC)cc6)c(S(=O)(=O)O)cc5c4)ccc3c2O)cc1 [Compound 73] | 600 nM | 1000 nM | – | –
13 | O=C(O)CCC(NC(=O)c1ccc(N=Nc2c(S(=O)(=O)O)cc3cc(NC(=O)C(=O)Nc4ccc5c(O)c(N=Nc6ccc(C(=O)NC(CCC(=O)O)C(=O)O)cc6)c(S(=O)(=O)O)cc5c4)ccc3c2O)cc1)C(=O)O (stereo not drawn) [Compound 107] | 500 nM | 700 nM | – | –
14 | COc1cc(N=Nc2c(S(=O)(=O)O)cc3cc(NC(=O)C(=O)Nc4ccc5c(O)c(N=Nc6cc(OC)c(C(=O)O)cc6Cl)c(S(=O)(=O)O)cc5c4)ccc3c2O)c(Cl)cc1C(=O)O [Compound 100] | 700 nM | 400 nM | – | –
15 | COc1ccc(C(=O)O)c(N=Nc2c(S(=O)(=O)O)cc3cc(NC(=O)C(=O)Nc4ccc5c(O)c(N=Nc6c(C(=O)O)ccc(OC)c6OC)c(S(=O)(=O)O)cc5c4)ccc3c2O)c1OC [Compound 101] | 2000 nM | 500 nM | – | –
16 | CC(=O)Nc1ccc(N=Nc2c(S(=O)(=O)O)cc3cc(NC(=O)Nc4ccc5c(O)c(N=Nc6ccc(NC(C)=O)cc6)c(S(=O)(=O)O)cc5c4)ccc3c2O)cc1 [Compound 72] | 500 nM | 1000 nM | – | –
17 | O=C(Nc1ccc2c(O)c(N=Nc3cc(C(=O)O)ccc3C(=O)O)c(S(=O)(=O)O)cc2c1)C(=O)Nc1ccc2c(O)c(N=Nc3cc(C(=O)O)ccc3C(=O)O)c(S(=O)(=O)O)cc2c1 [Compound 104] | 400 nM | 600 nM | – | –
18 | O=C(Nc1ccc2c(O)c(N=Nc3ccc(C(=O)O)cc3)c(S(=O)(=O)O)cc2c1)Nc1ccc2c(O)c(N=Nc3ccc(C(=O)O)cc3)c(S(=O)(=O)O)cc2c1 [Compound 67] | 250 nM | 90 nM | – | –
19 | O=C(Nc1ccc2c(O)cccc2c1)Nc1ccc2c(O)cc(S(=O)(=O)O)cc2c1 [Compound 6] | – | – | 84% | –
20 | COc1cc(N=Nc2c(S(=O)(=O)O)cc3cc(NC(=O)c4cccc(C(=O)Nc5ccc6c(O)c(N=Nc7cc(OC)c(OC)c(OC)c7C(=O)O)c(S(=O)(=O)O)cc6c5)n4)ccc3c2O)c(C(=O)O)c(OC)c1OC [Compound 128] | – | – | 5% | –

Row | SMILES | IC50 [1] | IC50 [2] | remaining activity at 10 µM [3] | also measured
21 | CCOC(=O)c1cccc(NC(=O)Nc2ccc3cc(S(=O)(=O)O)cc(O)c3c2)c1 [Compound 75] | – | – | 85% | –
22 | O=C(O)c1cc(N=Nc2c(S(=O)(=O)O)cc3cc(NC(=O)c4cc(=O)cc(C(=O)Nc5ccc6c(O)c(N=Nc7cc(C(=O)O)cc(C(=O)O)c7)c(S(=O)(=O)O)cc6c5)o4)ccc3c2O)cc(C(=O)O)c1 [Compound 143] | – | – | 0.23% | –
23 | O=C(O)CCCc1ccc(N=Nc2c(S(=O)(=O)O)cc3cc(Nc4c(Nc5ccc6c(O)c(N=Nc7ccc(CCCC(=O)O)cc7)c(S(=O)(=O)O)cc6c5)c(=O)c4=O)ccc3c2O)cc1 [Compound 189] | – | – | 1% | –
24 | Cc1cc(C(=O)O)ccc1N=Nc1c(S(=O)(=O)O)cc2cc(NC(=O)c3cc(=O)cc(C(=O)Nc4ccc5c(O)c(N=Nc6ccc(C(=O)O)cc6C)c(S(=O)(=O)O)cc5c4)o3)ccc2c1O [Compound 144] | – | – | 0.26% | –
25 | COc1cc(C(=O)O)ccc1N=Nc1c(S(=O)(=O)O)cc2cc(NC(=O)c3ccc(C(=O)Nc4ccc5c(O)c(N=Nc6ccc(C(=O)O)cc6OC)c(S(=O)(=O)O)cc5c4)cc3)ccc2c1O [Compound 167] | – | – | 0.26% | –
26 | CCOC(=O)c1ccc(NC(=O)Nc2ccc3c(O)cc(S(=O)(=O)O)cc3c2)cc1 [Compound 28] | – | – | – | % RT activity remaining at 10 μM ([3]; 10 µM): 100%
27 | COC(=O)c1ccccc1NC(=O)Nc1ccc2c(O)cc(S(=O)(=O)O)cc2c1 [Compound 29] | – | – | 108% | –
28 | CC(=O)Nc1ccc(N=Nc2c(S(=O)(=O)O)cc3cc(NC(=O)c4ccc(C(=O)Nc5ccc6c(O)c(N=Nc7ccc(NC(C)=O)cc7)c(S(=O)(=O)O)cc6c5)cc4)ccc3c2O)cc1 [Compound 174] | – | – | 28% | –
29 | Cc1cc2nc(N=Nc3c(S(=O)(=O)O)cc4cc(NC(=O)c5ccc(C(=O)Nc6ccc7c(O)c(N=Nc8nc9cc(C)c(C)cc9[nH]8)c(S(=O)(=O)O)cc7c6)cc5)ccc4c3O)[nH]c2cc1C [Compound 183] | – | – | 36% | –
30 | O=C(O)c1ccc(N=Nc2c(S(=O)(=O)O)cc3cc(Nc4c(Nc5ccc6c(O)c(N=Nc7ccc(C(=O)O)cc7)c(S(=O)(=O)O)cc6c5)c(=O)c4=O)ccc3c2O)cc1 [Compound 186] | – | – | 0.5% | –
31 | O=C(Nc1ccc2c(O)cc(S(=O)(=O)O)cc2c1)c1cc(=O)cc(C(=O)Nc2ccc3c(O)cc(S(=O)(=O)O)cc3c2)o1 [Compound 131] | – | – | 48% | –
32 | COc1cc(N=Nc2c(S(=O)(=O)O)cc3cc(NC(=O)c4ccc(C(=O)Nc5ccc6c(O)c(N=Nc7cc(OC)c(OC)c(OC)c7)c(S(=O)(=O)O)cc6c5)cc4)ccc3c2O)cc(OC)c1OC [Compound 175] | – | – | 62% | –
33 | CCOC(=O)c1ccc(N=Nc2c(S(=O)(=O)O)cc3ccc(NC(=O)Nc4ccc5cc(S(=O)(=O)O)c(N=Nc6ccc(C(=O)OCC)cc6)c(O)c5c4)cc3c2O)cc1 [Compound 84] | – | – | 1.7% | –
34 | O=C(Nc1ccc2cc(S(=O)(=O)O)ccc2c1)Nc1ccc2cc(S(=O)(=O)O)ccc2c1 [Compound 82] | – | – | 92% | –
35 | CC(NC(=O)Nc1ccc2c(O)cc(S(=O)(=O)O)cc2c1)c1ccc(F)cc1 (stereo not drawn) [Compound 12] | – | – | 88% | –
36 | O=C(Nc1ccc2c(O)c(N=Nc3cc(F)c(F)c(C(=O)O)c3F)c(S(=O)(=O)O)cc2c1)c1cccc(C(=O)Nc2ccc3c(O)c(N=Nc4cc(F)c(F)c(C(=O)O)c4F)c(S(=O)(=O)O)cc3c2)n1 [Compound 126] | – | – | 0.16% | –
37 | O=C(Nc1ccc2c(O)cc(S(=O)(=O)O)cc2c1)c1ccccc1 [Compound 21] | – | – | 108% | –
38 | COc1cc(C(=O)O)ccc1N=Nc1c(S(=O)(=O)O)cc2cc(Nc3c(Nc4ccc5c(O)c(N=Nc6ccc(C(=O)O)cc6OC)c(S(=O)(=O)O)cc5c4)c(=O)c3=O)ccc2c1O [Compound 193] | – | – | 0.4% | –
39 | O=C(Nc1ccc2c(O)c(N=Nc3ccc([As](=O)(O)O)cc3)c(S(=O)(=O)O)cc2c1)Nc1ccc2c(O)c(N=Nc3ccc([As](=O)(O)O)cc3)c(S(=O)(=O)O)cc2c1 [Compound 48] | – | – | – | % RT activity remaining at 10 μM [3]: 17%
